Experiments:
[1] = tested on: HS-5 cells; set-up: method as in PMID 36768497; conditions: cited from earlier work
[2] = tested on: HL-60 cells; assay: Proliferation, [3H]-thymidine uptake, HL-60; type: cell-based; conditions: for IC50: Homo sapiens, HL-60, 72 h, 95% confidence interval in brackets, read-out: IC50 inhibition of proliferation
Protocol: (§1) Acute myeloid leukemia cell line HL-60 and multiple myeloma cell lines AMO-1 and KMS-12-PE were obtained from the German Collection of Microorganisms and Cell Cultures (DSMZ), Braunschweig, Germany, and non-tumorigenic stromal cell line HS-5 was acquired from the American Type Culture Collection (ATCC, Manassas, VA, USA). All cell lines were cultured in RPMI 1640 medium without phenol red (Pan Biotech, Aidenbach, Germany), supplemented with 2 mM glutamine, 100 U/mL penicillin, 100 µg/mL streptomycin (Sigma-Aldrich, St. Louis, MO, USA), and 10% fetal bovine serum (FBS Maximus, Catus Biotech GmbH, Tutzing, Germany) at 37 °C in a humidified atmosphere of 5% CO2/95% air. Cells were fed twice weekly. Logarithmically growing cells were resuspended at 1 × 10^5 cells/mL, plated in triplicate in round-bottom 96-well plates (100 µL per well; Falcon, Becton Dickinson, Franklin Lakes, NJ, USA), and incubated at 37 °C in 5% CO2/95% air for 2 h. Subsequently, the compounds were adjusted in the cell culture medium to reach the final concentrations in a total volume of 150 µL and incubated for an additional 72 h. Cell proliferation was assessed by [^3H]-thymidine uptake. Each well was exposed to 2 µCi [^3H]-thymidine (Hartmann Analytic, Braunschweig, Germany) during the final 12–16 h of incubation. Cells were harvested using a semi-automated device, and [^3H]-thymidine incorporation (expressed in counts per minute, cpm) was measured with a scintillation counter (MicroBeta TriLux, PerkinElmer, Waltham, MA, USA). Metabolic activity was assessed by resazurin staining. Resazurin (Carl Roth, Karlsruhe, Germany) was dissolved in distilled water at a concentration of 0.1 mg/mL, and 15 µL of this solution was added to each well, followed by a 2 h incubation at 37 °C. Relative fluorescence units (RFUs) were measured using a Synergy H1 plate reader equipped with a 560 nm excitation/590 nm emission filter set (BioTek; Agilent, Santa Clara, CA, USA). Proliferation and metabolic activity in the absence of compounds were defined as 100% (control), and the values for compound-treated samples were expressed as percentages relative to the control. Selectivity indices were calculated by dividing the IC50 value of each compound against HS-5 cells through the IC50 values against the investigated cell lines.
(§2) The Wilcoxon Rank Sum Test was used to analyze proliferation and metabolic activity in the absence and presence of varying compound concentrations (NCSS 2007 software, version 07.1.2, Kaysville, UT, USA). A p-value < 0.05 was considered statistically significant. IC50 values were calculated using GraphPad Prism 10.1.2. This software reports 95% confidence intervals instead of standard errors. […] Nonetheless, the figures clearly illustrate the IC50 values due to the narrow concentration range tested.

[3] = tested on: MOLM-13 cells; assay: Proliferation, [3H]-thymidine uptake, MOLM-13; type: cell-based; conditions: for IC50: Homo sapiens, MOLM-13, 72 h, 95% confidence interval in brackets, read-out: IC50 inhibition of proliferation
Protocol: [The source words this procedure for another cell line and reports this cell line under the same test.] as §1, §2

[4] = tested on: AMO-1 cells; assay: Proliferation, [3H]-thymidine uptake, AMO-1; type: cell-based; conditions: for IC50: AMO-1, 72 h, 95% confidence interval in brackets, read-out: IC50 inhibition of proliferation; for Selectivity index (proliferation): IC50 HS-5 / IC50 AMO-1
Protocol: as §1, §2

[5] = tested on: KMS-12-PE cells; assay: Proliferation, [3H]-thymidine uptake, KMS-12-PE; type: cell-based; conditions: for IC50: KMS-12-PE, 72 h, 95% confidence interval in brackets, read-out: IC50 inhibition of proliferation; for Selectivity index (proliferation): IC50 HS-5 / IC50 KMS-12-PE
Protocol: as §1, §2

[6] = tested on: HS-5 cells; assay: Proliferation, [3H]-thymidine uptake, non-malignant HS-5; type: cell-based; conditions: HS5; HS-5 (non-malignant), 72 h, 95% confidence interval in brackets; read-out: IC50 inhibition of proliferation
Protocol: as §1, with “Subsequently, the compounds were adjusted in the cell culture medium to reach the final concentrations in a total volume of 150 µL and incubated for an additional 72 h.” left out, “Each well was exposed to 2 µCi [^3H]-thymidine (Hartmann Analytic, Braunschweig, Germany) during the final 12–16 h of incubation.” left out, “Resazurin (Carl Roth, Karlsruhe, Germany) was dissolved in distilled water at a concentration of 0.1 mg/mL, and 15 µL of this solution was added to each well, followed by a 2 h incubation at 37 °C.” left out
(§3) The Wilcoxon Rank Sum Test was used to analyze proliferation and metabolic activity in the absence and presence of varying compound concentrations (NCSS 2007 software, version 07.1.2, Kaysville, UT, USA). […] IC50 values were calculated using GraphPad Prism 10.1.2. […]

[7] = tested on: HL-60 cells; assay: Metabolic activity, resazurin staining, HL-60; type: cell-based; conditions: for IC50: Homo sapiens, HL-60, 72 h, resazurin, 95% confidence interval in brackets, read-out: IC50 inhibition of metabolic activity; for Selectivity index (metabolic activity): IC50 HS-5 / IC50 HL-60
Protocol: as §1, §2
(§4) Proliferation inhibition often leads to cell death. Therefore, the cytotoxic activity of the compounds was further evaluated using a modified 3-(4,5-dimethylthiazol-2-yl)-2,5-diphenyltetrazolium bromide (MTT) assay, the resazurin (Alamar Blue) assay. Metabolically active cells reduce the non-fluorescent dye resazurin to the fluorescent dye resorufin via mitochondrial reductase activity, which correlates with cell viability. In the first step the metabolic activity of the four isolated flavonoids was investigated, showing a dose-dependent reduction, but to a much lower extent than in the proliferation assays (Table A2). In fact, only 7,3′,4′-trimethoxymyricetin (2) inhibited the metabolic activity of all four cell lines by more than 50% at a concentration of 100 µM.

[8] = tested on: MOLM-13 cells; assay: Metabolic activity, resazurin staining, MOLM-13; type: cell-based; conditions: for IC50: Homo sapiens, MOLM-13, 72 h, resazurin, 95% confidence interval in brackets, read-out: IC50 inhibition of metabolic activity; for Selectivity index (metabolic activity): IC50 HS-5 / IC50 MOLM-13
Protocol: [The source words this procedure for another cell line and reports this cell line under the same test.] as §1, §2, §4

[9] = tested on: AMO-1 cells; assay: Metabolic activity, resazurin staining, AMO-1; type: cell-based; conditions: for IC50: Homo sapiens, AMO1, AMO-1, 72 h, resazurin, 95% confidence interval in brackets, read-out: IC50 inhibition of metabolic activity; for Selectivity index (metabolic activity): IC50 HS-5 / IC50 AMO-1
Protocol: as §1, §2, §4

[10] = tested on: KMS-12-PE cells; assay: Metabolic activity, resazurin staining, KMS-12-PE; type: cell-based; conditions: for IC50: Homo sapiens, KMS-12-PE, 72 h, resazurin, 95% confidence interval in brackets, read-out: IC50 inhibition of metabolic activity; for Selectivity index (metabolic activity): IC50 HS-5 / IC50 KMS-12-PE
Protocol: as §1, §2, §4

[11] = tested on: HS-5 cells; assay: Metabolic activity, resazurin staining, non-malignant HS-5; type: cell-based; conditions: HS5, HS-5 (non-malignant), 72 h, 95% confidence interval in brackets, read-out: IC50 inhibition of metabolic activity
Protocol: as §1, with “Subsequently, the compounds were adjusted in the cell culture medium to reach the final concentrations in a total volume of 150 µL and incubated for an additional 72 h.” left out, “Each well was exposed to 2 µCi [^3H]-thymidine (Hartmann Analytic, Braunschweig, Germany) during the final 12–16 h of incubation.” left out, “Resazurin (Carl Roth, Karlsruhe, Germany) was dissolved in distilled water at a concentration of 0.1 mg/mL, and 15 µL of this solution was added to each well, followed by a 2 h incubation at 37 °C.” left out
as §3

[12] = tested on: KB cell line; set-up: method as in PMID 17089326; conditions: cited from earlier work
[13] = tested on: BC cell line; set-up: method as in PMID 17089326; conditions: cited from earlier work
[14] = tested on: human colon cancer cell line HT-29; set-up: method as in PMID 22685350; conditions: cited from earlier work
[15] = tested on: NF-κB p65; set-up: method as in PMID 22685350; conditions: read-out: concentration inhibiting NF-κB p65; cited from earlier work
[16] = tested on: KMS-12-PE; conditions: 10 nM; cited from earlier work
[17] = tested on: KMS-12-BM; set-up: method as in PMID 20088798; conditions: sister cell line of KMS-12-PE, read-out: IC50 inhibition of proliferation; cited from earlier work
[18] = tested on: other MM cell lines; set-up: method as in PMID 20088798; conditions: cited from earlier work

Row | IC50 [2] [nM] | IC50 [3] [nM] | IC50 [7] [nM] | IC50 [8] [nM] | SMILES | IC50 ([4]; Homo sapiens, AMO1, 72 h) [nM] | Selectivity index (proliferation) [4] | IC50 ([5]; Homo sapiens) [nM] | Selectivity index (proliferation) [5] | IC50 [6] [nM] | Selectivity index (metabolic activity) [7] | Selectivity index (metabolic activity) [8] | IC50 [9] [nM] | Selectivity index (metabolic activity) [9] | IC50 [10] [nM] | Selectivity index (metabolic activity) [10] | IC50 [11] [nM] | other results
1 | – | – | – | – | N.N.[Cl][Pt][Cl] [Cisplatin] | – | – | – | – | – | – | – | – | – | – | – | – | concentration needed to inhibit HS-5 cells [1]: above 1 µM
2 | 1200 | 1100 | 1900 | 1300 | C=C1C(=O)O[C@@H]2/C=C(/CO)C3=CC(=O)[C@@](C)(C[C@H](OC(=O)/C(C)=C\C)[C@@H]12)O3 [Compound 6, centratherin] | 2200 | 1.1 | 2200 | 1.4 | 2500 | 2.4 | 3.5 | 2400 | 1.9 | 2700 | 1.6 | 4500 | Selectivity index (proliferation) ([2]; IC50 HS-5 / IC50 HL-60): 2.1; Selectivity index (proliferation) ([3]; IC50 HS-5 / IC50 MOLM-13): 2.2; IC50 [5]: 1800 nM; IC50 [12]: < 300 nM; IC50 [13]: < 300 nM
3 | 1300 | 1400 | 2900 | 1800 | C=C1C(=O)O[C@@H]2/C=C(/C)C3=CC(=O)[C@@](C)(C[C@H](OC(=O)/C(C)=C\C)[C@@H]12)O3 [Compound 7, lychnopholide] | 1800 | 2.0 | 2600 | 1.7 | 4300 | 1.7 | 2.8 | 3400 | 1.4 | 4000 | 1.2 | 4900 | IC50 [4]: 2200 nM; IC50 [14]: 1400 nM; IC50 [15]: 2900 nM
4 | – | – | – | – | COc1cccc2c1C(=O)c1c(O)c3c(c(O)c1C2=O)C[C@@](O)(C(=O)CO)C[C@@H]3O[C@H]1C[C@H](N)[C@H](O)[C@H](C)O1 [doxorubicin] | – | – | – | – | – | – | – | – | – | – | – | – | proliferation inhibited to [16]: 45.5%
5 | – | – | – | – | Nc1cccc2c1CN(C1CCC(=O)NC1=O)C2=O (centres unmarked) [lenalidomide] | – | – | – | – | – | – | – | – | – | – | – | – | IC50 [17]: 57 nM; IC50 concentrations (in words) [18]: high µM range

From PMC12388523, “Flavonoids and Sesquiterpene Lactones from Lychnophora ericoides (Arnica-Do-Cerrado) and Their In Vitro Effects on Multiple Myeloma and Acute Myeloid Leukemia” (Metabolites, 2025)
